One assay has as its target T1, Rab8a6-176(GppNHp) (Homo sapiens, UniProt P61006).
T1 construct: Expression and purification of Rab8a6-176 was performed analog to full-length Rab8a; made in house
T1 sequence (P61006 6-176): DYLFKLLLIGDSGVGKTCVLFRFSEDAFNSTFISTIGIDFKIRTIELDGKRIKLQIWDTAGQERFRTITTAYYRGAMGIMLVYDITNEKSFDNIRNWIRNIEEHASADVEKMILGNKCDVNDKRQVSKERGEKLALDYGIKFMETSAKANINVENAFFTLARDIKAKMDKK
Nature of the assay: Competition fluorescence polarization assay (displacement of labelled peptide 25). The settings on record: for Competition with labelled peptide 25 (in words): excess of acetylated peptide added to complex of labelled peptide 25 and Rab8a6-176(GppNHp). The class given is binding. On the procedure: Acetylated peptides were serially diluted and incubated with a mixture of the fluorescein-labelled peptide and Rab8a6–176 (GppNHp) at room temperature for 1 h. Fluorescence polarization was determined and IC50 values were calculated by nonlinear regression analysis using Prism 5.0 software (GraphPad)[64].
Rab8a6-176 (GppNHp) was serially diluted in assay buffer and treated with 133 nM fluorescein-labeled peptide. After incubation for 4 h at room temperature the mixture was soaked into capillaries for microscale thermophoresis (MST) measurements. Kd values were calculated after initial fluorescene analysis of the obtained MST curves using the software Monolith Affinity Analysis (NanoTemper Technologies).
Competition fluorescence polarization assay
Acetylated peptides were serially diluted in assay buffer (1:1) and were incubated with a mixture of […] fluorescein-labeled peptide and Rab8a6-176 (GppNHp) (15 µM or 100 µM depending on Kd of the labeled peptide) for 1 h at room temperature.
Fluorescence polarization was dertermined and half maximal inhibitory concentrations (IC50) were calculated by nonlinear regression analysis of dose-response curves using Prism 5.0 software (GraphPad).5
Background: In fluorescence polarisation assays a small probe gives low polarisation when free and higher when bound to something large.

The next assay concerns the target T2, peptide 28 (Homo sapiens, UniProt Q6IQ26).
T2 chain: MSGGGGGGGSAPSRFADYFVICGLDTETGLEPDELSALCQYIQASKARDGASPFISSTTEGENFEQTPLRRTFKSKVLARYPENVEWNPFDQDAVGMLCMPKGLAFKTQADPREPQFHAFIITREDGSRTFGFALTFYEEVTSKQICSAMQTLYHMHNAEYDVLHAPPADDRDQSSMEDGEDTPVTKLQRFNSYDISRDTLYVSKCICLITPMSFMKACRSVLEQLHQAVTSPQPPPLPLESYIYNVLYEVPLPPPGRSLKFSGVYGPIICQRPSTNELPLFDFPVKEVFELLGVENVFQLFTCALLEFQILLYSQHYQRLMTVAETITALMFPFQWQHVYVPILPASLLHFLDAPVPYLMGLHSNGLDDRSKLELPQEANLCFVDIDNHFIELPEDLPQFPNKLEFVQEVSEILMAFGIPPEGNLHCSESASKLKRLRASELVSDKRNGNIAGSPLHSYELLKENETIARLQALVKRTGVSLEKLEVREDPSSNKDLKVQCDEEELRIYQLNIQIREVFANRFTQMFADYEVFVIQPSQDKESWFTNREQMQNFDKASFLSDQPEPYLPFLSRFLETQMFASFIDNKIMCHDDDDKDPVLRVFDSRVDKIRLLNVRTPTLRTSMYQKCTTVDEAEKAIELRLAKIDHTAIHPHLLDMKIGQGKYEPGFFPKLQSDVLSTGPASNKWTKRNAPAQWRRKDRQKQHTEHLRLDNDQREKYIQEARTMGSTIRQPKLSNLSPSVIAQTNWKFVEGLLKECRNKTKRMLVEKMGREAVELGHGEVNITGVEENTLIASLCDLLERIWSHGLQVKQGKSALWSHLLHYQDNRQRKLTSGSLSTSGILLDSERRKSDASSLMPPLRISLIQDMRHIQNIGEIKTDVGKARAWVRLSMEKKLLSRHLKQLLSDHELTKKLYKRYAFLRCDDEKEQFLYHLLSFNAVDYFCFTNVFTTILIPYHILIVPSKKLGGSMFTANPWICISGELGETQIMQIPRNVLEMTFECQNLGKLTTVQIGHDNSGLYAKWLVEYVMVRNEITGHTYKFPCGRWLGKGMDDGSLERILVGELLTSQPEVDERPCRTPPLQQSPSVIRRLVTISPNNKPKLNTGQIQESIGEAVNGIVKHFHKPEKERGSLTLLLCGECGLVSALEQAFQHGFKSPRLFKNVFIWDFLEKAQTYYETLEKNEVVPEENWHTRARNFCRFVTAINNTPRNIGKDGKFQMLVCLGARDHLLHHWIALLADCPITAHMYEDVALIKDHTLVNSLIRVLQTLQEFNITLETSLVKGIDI
Nature of the assay: fluorescence polarization.

Bridge positions count the residues as written; N and C are the ends. Square brackets hold non-standard residues; d marks the D form. Peptide text beside a SMILES is read from it. S5 = C=CCCC[C@](C)(N)C(=O)O

As a reminder, the IC50 is the concentration needed to halve the response being measured. A word on the Kd: it is the concentration at which binding is half-saturated. Lower therefore signals a tighter complex.

Take `CC(=O)N[C@@H](CC(=O)O)C(=O)N[C@@H](CC(=O)O)C(=O)N[C@@H](CCC(=O)O)C(=O)N[C@@]1(C)CCC/C=C\CCC[C@@](C)(C(=O)N[C@@H](Cc2ccc(O)cc2)C(=O)N[C@@H](Cc2c[nH]cn2)C(=O)N[C@@H](CC(C)C)C(=O)N[C@@H](CC(C)C)C(=O)N[C@@H](CO)C(=O)N[C@@H](Cc2ccccc2)C(=O)N[C@@H](CC(N)=O)C(=O)N[C@@H](C)C(=O)N[C@H](C(N)=O)C(C)C)NC(=O)[C@H](Cc2ccccc2)NC(=O)[C@H](CCC(N)=O)NC(=O)[C@H](CCC(=O)O)NC1=O` [acetylated StRIP3] (Ac-DDE[S5]EQF[S5]YHLLSFNAV-NH2; staple (Z) 4-8; C-terminus assumed): the IC50 on Rab8a6-176(GppNHp) (acetylated peptide as competitor, fluorescein-labelled peptide 25 (60 nM) bound to Rab8a(GppNHp) 15 μM, 1 h room temperature, triplicates, errors 1σ) is 33 µM. Further, the “Competition with labelled peptide 25 (in words)” value on Rab8a6-176(GppNHp) is recorded as “full displacement of peptide 25”.
Regarding `CC(=O)N[C@@H](CC(=O)O)C(=O)N[C@@H](CC(=O)O)C(=O)N[C@@H](CCC(=O)O)C(=O)N[C@@H](CCCCN)C(=O)N[C@@H](CCC(=O)O)C(=O)N[C@@H](CCC(N)=O)C(=O)N[C@@H](Cc1ccccc1)C(=O)N[C@@H](CC(C)C)C(=O)N[C@@H](Cc1ccc(O)cc1)C(=O)N[C@@H](Cc1c[nH]cn1)C(=O)N[C@@H](CC(C)C)C(=O)N[C@@H](CC(C)C)C(=O)N[C@@H](CO)C(=O)N[C@@H](Cc1ccccc1)C(=O)N[C@@H](CC(N)=O)C(=O)N[C@@H](C)C(=O)N[C@H](C(N)=O)C(C)C` [wt-R6IP] (Ac-DDEKEQFLYHLLSFNAV-NH2; N-terminus and C-terminus assumed), at Rab8a6-176(GppNHp), the “Competition with labelled peptide 25 (in words)” value is “does not compete with peptide 25”.

B1: Rab8a 6-176 (protein)
chain: DYLFKLLLIGDSGVGKTCVLFRFSEDAFNSTFISTIGIDFKIRTIELDGKRIKLQIWDTAGQERFRTITTAYYRGAMGIMLVYDITNEKSFDNIRNWIRNIEEHASADVEKMILGNKCDVNDKRQVSKERGEKLALDYGIKFMETSAKANINVENAFFTLARDIKAKMDKK
modifications: GppNHp-bound Rab8a; bicyclic alkyne/olefin crosslinked StRIP3 derivative, fluorescein-PEG label
In the assay with peptide 28, B1 yielded a Kd of 9.6 µM.

Source of the values: article PMC4834642, “Orthogonal ring-closing alkyne and olefin metathesis for the synthesis of small GTPase-targeting bicyclic peptides” (Nature Communications, 2016).
